# Measurements taken from ChEMBL document CHEMBL5291721, “A preclinical secondary pharmacology resource illuminates target-adverse drug reaction associations of marketed drugs” (Nat Commun, 2023).
# Legend:
# D(3) dopamine receptor = D(3) dopamine receptor (Homo sapiens, UniProt P35462)
# [1] = target: Delta-type opioid receptor (Homo sapiens, UniProt P41143)
# [2] = target: T1, Amine oxidase [flavin-containing] A (Homo sapiens, UniProt P21397); format: functional
# T1 sequence (P21397 whole entry): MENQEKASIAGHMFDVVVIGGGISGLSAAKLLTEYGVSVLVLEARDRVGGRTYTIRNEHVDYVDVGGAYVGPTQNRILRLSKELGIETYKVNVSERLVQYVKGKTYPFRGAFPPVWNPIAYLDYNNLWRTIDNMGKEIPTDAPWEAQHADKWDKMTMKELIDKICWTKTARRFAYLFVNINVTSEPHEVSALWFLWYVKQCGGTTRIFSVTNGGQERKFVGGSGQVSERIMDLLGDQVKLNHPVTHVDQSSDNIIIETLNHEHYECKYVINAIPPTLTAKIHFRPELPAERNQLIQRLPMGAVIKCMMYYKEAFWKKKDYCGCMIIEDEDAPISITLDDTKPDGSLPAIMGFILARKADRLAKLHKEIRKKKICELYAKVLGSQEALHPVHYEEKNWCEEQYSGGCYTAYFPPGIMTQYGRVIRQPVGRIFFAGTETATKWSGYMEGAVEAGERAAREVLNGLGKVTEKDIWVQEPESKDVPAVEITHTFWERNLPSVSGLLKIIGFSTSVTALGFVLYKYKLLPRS
# [3] = target: Beta-1 adrenergic receptor (Homo sapiens, UniProt P08588); format: functional
# Sequence of Beta-1 adrenergic receptor (P08588 whole entry): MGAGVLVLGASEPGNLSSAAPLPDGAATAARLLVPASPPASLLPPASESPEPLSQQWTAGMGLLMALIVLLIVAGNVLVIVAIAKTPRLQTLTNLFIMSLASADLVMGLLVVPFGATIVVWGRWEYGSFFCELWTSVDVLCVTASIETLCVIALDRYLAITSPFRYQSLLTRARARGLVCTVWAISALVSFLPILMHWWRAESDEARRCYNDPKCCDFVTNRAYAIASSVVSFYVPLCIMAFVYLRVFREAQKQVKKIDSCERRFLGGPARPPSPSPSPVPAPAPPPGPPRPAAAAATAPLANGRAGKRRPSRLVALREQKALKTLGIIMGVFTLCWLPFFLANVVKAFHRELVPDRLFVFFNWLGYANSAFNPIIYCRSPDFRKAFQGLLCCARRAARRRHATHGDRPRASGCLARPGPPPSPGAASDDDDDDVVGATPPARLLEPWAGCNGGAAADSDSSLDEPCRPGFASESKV
# [4] = target: T2, Cholecystokinin receptor type A (Homo sapiens, UniProt P32238)
# T2 sequence (P32238 whole entry): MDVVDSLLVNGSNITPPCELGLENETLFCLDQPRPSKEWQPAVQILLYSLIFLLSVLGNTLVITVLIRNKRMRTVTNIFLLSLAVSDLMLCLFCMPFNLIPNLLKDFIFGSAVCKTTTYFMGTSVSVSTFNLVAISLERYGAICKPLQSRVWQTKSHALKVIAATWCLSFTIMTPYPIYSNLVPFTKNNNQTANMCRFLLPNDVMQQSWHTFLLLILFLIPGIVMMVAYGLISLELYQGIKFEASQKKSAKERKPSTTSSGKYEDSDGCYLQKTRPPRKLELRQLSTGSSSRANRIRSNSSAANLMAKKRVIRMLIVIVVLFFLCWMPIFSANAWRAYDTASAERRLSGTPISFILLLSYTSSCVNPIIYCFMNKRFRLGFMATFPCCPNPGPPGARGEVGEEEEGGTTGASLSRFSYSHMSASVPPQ
# [5] = target: T3, 5-hydroxytryptamine receptor 2C (Homo sapiens, UniProt P28335)
# T3 sequence (P28335 whole entry): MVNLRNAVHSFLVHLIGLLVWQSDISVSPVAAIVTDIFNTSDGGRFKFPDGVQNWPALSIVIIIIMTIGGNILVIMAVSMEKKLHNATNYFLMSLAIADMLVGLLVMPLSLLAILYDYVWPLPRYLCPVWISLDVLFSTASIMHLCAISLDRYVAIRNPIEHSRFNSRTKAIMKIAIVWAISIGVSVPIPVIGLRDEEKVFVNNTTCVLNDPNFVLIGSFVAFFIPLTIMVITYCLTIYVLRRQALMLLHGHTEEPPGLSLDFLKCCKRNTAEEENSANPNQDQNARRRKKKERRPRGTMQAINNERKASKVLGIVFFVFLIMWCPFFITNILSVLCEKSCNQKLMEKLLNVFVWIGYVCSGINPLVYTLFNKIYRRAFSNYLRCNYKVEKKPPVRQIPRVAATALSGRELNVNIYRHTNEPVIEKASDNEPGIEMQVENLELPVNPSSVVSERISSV
# D(1A) dopamine receptor = D(1A) dopamine receptor (Homo sapiens, UniProt P21728); format: functional, cell-based
# Sequence of D(1A) dopamine receptor (P21728 whole entry): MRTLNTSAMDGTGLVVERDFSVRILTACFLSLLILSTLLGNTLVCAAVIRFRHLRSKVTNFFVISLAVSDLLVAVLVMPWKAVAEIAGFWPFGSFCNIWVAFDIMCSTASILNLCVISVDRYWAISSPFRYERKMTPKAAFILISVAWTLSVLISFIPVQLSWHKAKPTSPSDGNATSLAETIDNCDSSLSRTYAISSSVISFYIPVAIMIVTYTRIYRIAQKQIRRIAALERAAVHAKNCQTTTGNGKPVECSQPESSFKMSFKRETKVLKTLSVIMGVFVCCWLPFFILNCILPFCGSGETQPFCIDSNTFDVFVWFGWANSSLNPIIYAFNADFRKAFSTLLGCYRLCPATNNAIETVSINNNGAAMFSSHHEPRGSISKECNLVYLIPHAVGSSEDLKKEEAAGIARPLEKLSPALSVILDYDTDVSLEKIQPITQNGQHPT
# Progesterone receptor = target: T4, Progesterone receptor (Homo sapiens, UniProt P06401)
# T4 sequence (P06401 whole entry): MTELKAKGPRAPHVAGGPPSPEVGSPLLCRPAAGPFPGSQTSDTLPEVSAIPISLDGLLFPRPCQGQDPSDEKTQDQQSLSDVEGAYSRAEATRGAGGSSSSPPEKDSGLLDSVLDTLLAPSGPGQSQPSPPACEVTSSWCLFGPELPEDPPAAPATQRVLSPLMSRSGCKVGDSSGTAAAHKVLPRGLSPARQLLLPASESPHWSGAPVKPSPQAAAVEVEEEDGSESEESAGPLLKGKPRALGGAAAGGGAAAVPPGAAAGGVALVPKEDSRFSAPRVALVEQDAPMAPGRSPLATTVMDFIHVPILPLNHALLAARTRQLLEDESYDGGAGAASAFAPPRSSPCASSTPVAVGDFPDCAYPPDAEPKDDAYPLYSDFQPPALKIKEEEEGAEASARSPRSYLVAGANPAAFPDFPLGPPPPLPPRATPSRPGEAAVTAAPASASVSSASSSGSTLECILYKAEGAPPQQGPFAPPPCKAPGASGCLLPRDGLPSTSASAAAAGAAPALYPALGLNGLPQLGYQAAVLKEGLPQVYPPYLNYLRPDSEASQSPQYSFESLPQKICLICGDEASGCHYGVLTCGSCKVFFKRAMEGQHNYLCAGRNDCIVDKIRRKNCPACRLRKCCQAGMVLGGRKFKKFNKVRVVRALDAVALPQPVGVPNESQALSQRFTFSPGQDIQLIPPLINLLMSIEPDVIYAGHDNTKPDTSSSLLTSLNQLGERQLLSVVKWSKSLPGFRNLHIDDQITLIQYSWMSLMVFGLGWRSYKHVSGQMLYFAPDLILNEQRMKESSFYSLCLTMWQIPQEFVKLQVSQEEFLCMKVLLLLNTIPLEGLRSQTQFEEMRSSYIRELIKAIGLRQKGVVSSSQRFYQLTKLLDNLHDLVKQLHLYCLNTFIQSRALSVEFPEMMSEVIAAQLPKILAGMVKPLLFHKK
# [6] = target: Beta-2 adrenergic receptor (Homo sapiens, UniProt P07550); format: functional, cell-based
# Sequence of Beta-2 adrenergic receptor (P07550 whole entry): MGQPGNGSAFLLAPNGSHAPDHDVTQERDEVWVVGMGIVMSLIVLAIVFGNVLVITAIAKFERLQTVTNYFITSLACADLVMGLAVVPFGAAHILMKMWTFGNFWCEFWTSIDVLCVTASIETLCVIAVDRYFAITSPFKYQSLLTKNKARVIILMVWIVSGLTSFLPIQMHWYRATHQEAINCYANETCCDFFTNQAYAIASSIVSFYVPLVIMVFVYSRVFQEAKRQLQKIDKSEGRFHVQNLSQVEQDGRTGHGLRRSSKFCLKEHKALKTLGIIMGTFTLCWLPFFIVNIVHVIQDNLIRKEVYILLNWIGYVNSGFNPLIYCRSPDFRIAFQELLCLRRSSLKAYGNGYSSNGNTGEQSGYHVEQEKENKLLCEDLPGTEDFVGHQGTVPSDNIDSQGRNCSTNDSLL
# [7] = target: Voltage-gated inwardly rectifying potassium channel KCNH2 (Homo sapiens, UniProt Q12809); format: functional; conditions: read-out: AC50
# Sequence of Voltage-gated inwardly rectifying potassium channel KCNH2 (Q12809 whole entry): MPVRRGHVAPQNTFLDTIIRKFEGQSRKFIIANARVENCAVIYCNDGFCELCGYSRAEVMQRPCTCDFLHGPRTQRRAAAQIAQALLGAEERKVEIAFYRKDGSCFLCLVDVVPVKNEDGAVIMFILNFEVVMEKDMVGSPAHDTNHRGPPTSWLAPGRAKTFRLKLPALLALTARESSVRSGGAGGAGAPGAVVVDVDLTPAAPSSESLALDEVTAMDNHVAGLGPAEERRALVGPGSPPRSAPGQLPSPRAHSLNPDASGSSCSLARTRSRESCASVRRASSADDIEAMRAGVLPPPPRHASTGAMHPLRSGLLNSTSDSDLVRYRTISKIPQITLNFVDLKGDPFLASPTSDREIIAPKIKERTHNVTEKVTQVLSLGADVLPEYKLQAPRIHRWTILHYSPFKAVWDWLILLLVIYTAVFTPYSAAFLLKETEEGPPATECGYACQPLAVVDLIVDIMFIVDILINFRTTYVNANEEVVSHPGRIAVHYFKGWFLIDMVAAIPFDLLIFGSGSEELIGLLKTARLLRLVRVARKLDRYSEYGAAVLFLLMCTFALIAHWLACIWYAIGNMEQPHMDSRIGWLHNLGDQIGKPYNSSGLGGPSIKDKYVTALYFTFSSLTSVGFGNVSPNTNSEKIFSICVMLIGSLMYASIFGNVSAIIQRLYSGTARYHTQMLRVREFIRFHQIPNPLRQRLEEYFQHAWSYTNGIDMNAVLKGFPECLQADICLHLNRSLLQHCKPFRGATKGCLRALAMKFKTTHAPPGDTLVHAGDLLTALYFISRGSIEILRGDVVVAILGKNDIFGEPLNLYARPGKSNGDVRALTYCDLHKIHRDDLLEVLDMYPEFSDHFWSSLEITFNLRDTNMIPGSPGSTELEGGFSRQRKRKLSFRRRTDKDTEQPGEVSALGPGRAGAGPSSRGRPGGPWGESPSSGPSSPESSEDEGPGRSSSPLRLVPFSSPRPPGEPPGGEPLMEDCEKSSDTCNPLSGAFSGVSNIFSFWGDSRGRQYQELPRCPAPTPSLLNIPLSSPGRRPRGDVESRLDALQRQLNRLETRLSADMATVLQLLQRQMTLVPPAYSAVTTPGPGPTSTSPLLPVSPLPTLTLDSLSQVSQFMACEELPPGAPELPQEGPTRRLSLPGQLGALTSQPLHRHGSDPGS
# Also: assay procedure not described here.
# Sequence of Delta-type opioid receptor (P41143 whole entry): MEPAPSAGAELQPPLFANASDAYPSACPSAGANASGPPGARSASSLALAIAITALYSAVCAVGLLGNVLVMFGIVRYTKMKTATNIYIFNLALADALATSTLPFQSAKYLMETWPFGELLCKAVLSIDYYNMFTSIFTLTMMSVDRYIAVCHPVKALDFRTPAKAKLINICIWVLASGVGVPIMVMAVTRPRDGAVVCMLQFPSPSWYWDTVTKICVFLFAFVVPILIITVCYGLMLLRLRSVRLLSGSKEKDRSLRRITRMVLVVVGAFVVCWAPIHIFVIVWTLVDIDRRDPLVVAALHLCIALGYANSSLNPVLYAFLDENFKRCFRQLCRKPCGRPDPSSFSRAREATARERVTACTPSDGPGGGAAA
# Sequence of D(3) dopamine receptor (P35462 whole entry): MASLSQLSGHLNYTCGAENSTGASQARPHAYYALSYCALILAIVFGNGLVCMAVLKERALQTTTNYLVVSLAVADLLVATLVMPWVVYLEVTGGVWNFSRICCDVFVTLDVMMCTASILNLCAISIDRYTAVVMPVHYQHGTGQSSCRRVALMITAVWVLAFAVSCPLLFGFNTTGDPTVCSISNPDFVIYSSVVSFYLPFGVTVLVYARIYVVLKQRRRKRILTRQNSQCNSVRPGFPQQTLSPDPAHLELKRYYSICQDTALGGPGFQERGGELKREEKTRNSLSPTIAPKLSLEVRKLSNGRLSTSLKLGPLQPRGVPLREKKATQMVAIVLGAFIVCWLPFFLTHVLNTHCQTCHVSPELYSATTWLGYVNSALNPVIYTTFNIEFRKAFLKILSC
smiles,measurement,setting,value
Cc1c(C)c2c(c(C)c1O)CCC(C)(COc1ccc(CC3SC(=O)NC3=O)cc1)O2 (stereo not given) [TROGLITAZONE],AC50,D(3) dopamine receptor,6.23 µM
same,AC50,[1],> 30 µM
same,AC50,[2],> 30 µM
same,AC50,[3],20 µM
same,AC50,[4],> 30 µM
same,AC50,[5],> 30 µM
same,AC50,D(1A) dopamine receptor,> 30 µM
same,AC50,Progesterone receptor,3.55 µM
same,AC50,[6],> 30 µM
same,AC50,[7],> 30 µM
